Publication PMC9551036, “A selective and orally bioavailable VHL-recruiting PROTAC achieves SMARCA2 degradation in vivo” (Nature Communications, 2022)
Where “and” joins values, the source holds several entries; their conditions need not be identical. Identical values can stand only once. Like-named read-outs stand apart in the source and are kept apart here.

Tests used:
SMARCA4^BD = biological target: T1, SMARCA4^BD (Homo sapiens, UniProt P51532); experiment: SPR binding to immobilised SMARCA4 bromodomain
T1 construct: P51532, residues 1448–1569 with additional N-terminal SM residues; GST (TEV site) (N, cleaved yes); made in house; host or cells: Escherichia coli BL21(DE3); construct from SGC Toronto
T1 sequence (P51532 1448-1569): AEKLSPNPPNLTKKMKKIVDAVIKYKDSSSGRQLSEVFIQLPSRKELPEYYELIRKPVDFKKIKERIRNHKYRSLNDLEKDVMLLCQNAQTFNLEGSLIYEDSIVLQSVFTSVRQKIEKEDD
Procedure: SMARCA4^BD was provided by the Structural Genomics Consortium (SGC), Toronto[32] and SMARCA2^BD and PRM1^BD5 were synthesised by GeneArt then subcloned into pDEST15 vectors (Invitrogen). The VCB complex was expressed and purified as described previously, with the modification that 0.3 mM IPTG was used for induction of expression. […] Both were stored in 20 mM 4-(2-hydroxyethyl)−1-piperazineethanesulfonic acid (HEPES), 150 mM sodium chloride and 1 mM tris(2-carboxyethyl)phosphine (TCEP) pH 7.5. SMARCA2^BD, SMARCA4^BD and PBRM1^BD5 were expressed in Escherichia coli BL21(DE3) as N-terminal GST fusion proteins with a TEV protease cleavage site. Expression and purification of these proteins has been described previously[32],[33]. Starter cultures were grown overnight at 37 °C in 10 mL of Luria-Bertani (LB) medium with ampicillin (100 μg/mL). The starter cultures were diluted (1:100) in Terrific Broth (TB) medium with ampicillin (100 μg/mL) and grown in a shaking incubator at 37 °C to an optical density (OD600) ~1 before the temperature was lowered for induction (to 23 °C for SMARCA2^BD or 18 °C for SMARCA4^BD and PRRM1^BD5). […] Cells were harvested by centrifugation and stored at −80 °C prior to purification. Cells were resuspended in Lysis buffer and lysed by sonication (20 pulses of 5 s for 4 min) using a Sonopuls HD 3080 (Bandelin, Berlin, Germany) or by homogenisation using a Stansted Pressure Cell Homogeniser (Stansted Fluid Power). The Lysis buffers were as follows: for SMARCA2^BD: 50 mM HEPES, 500 mM sodium chloride, 5% glycerol, 5 mM dithiothreitol (DTT); for SMARCA4^BD: 25 mM HEPES, 0.3 M sodium chloride, 5% glycerol, 10 mM DTT, pH 7.5; for PBRM1^BD5: 25 mM HEPES, 300 mM sodium chloride, 5% glycerol, 10 mM DTT, pH 7.8; in each case supplemented with complete protease inhibitors (Roche). Affinity purification was performed using Glutathione Sepharose 4B (GE Healthcare) in batch mode or on-column. […] For SMARCA2^BD, prior to TEV protease cleavage the eluted GST-tagged BD was first dialysed into desalting buffer (20 mM HEPES, 250 mM sodium chloride, pH 7.0 + 0.5% glycerol). Where TEV cleavage was performed in solution, a second affinity (GST-trap) column purification step was carried out to remove the GST-tag and uncleaved GST-tagged protein. Proteins were further purified by SEC (HiLoad Superdex-75, 16/600) (GE Healthcare) and stored in Storage buffer (for SMARCA2^BD: 20 mM HEPES, 150 mM sodium chloride, pH 7.5; for SMARCA4^BD: 10 mM HEPES, 0.5 M NaCl, 5% glycerol, pH 7.5; for PBRM1^BD5: 20 mM HEPES, 300 mM NaCl, 5 mM DTT, pH 7.8). For AlphaScreen assays, eluted GST-tagged BDs were purified directly by SEC in the respective storage buffers without TEV cleavage. All chromatography purification steps were performed either at room temperature or 4 °C using an ÄKTA FPLC purification system (GE Healthcare) or a plastic Econo-Pac column (Bio-Rad).
SPR data were acquired on Biacore 8K or T200 instruments (Cytiva). Target proteins were immobilised at 25 °C on CM5 chips by amine coupling (EDC/NHS, Cytiva) in HBS-P+ running buffer (pH 7.4), containing 2 mM TCEP. After surface activation with EDC/NHS (contact time 420 s, flow rate 10 µl/min) SMARCA2^BD and SMARCA4^BD at 0.01–0.05 mg/ml in coupling buffer (10 mM Na-Acetate pH 6.5, 0.005% TWEEN 20 and 50 µM PFI-3[13]) were immobilised to a density of 100–5000 Response Units (RU). The reference surface was subsequently deactivated using 1 M ethanolamine. For VCB immobilisation, streptavidin (Sigma Aldrich, prepared at 1 mg/ml in 10 mM sodium acetate coupling buffer, pH 5.0) was immobilised by amine coupling to a density of 3000–5000 RU after which biotinylated VCB complex (0.125 mM in running buffer) was streptavidin-coupled to a density of 100–500 RU. Biotinylated VCB was prepared as previously described[27]: in brief, the complex was mixed 1:1 with EZ-Link NHS–PEG4–biotin (Thermo Scientific) and incubated at room temperature for 1 h.

[1] = biological target: VCB: PROTAC: SMARCA2^BD ternary complex (Homo sapiens, UniProt P40337+P51531); experiment: TR-FRET ternary complex affinity and cooperativity, SMARCA2; assay type: binding; parameters: P51531-2, residues 1373-1493 with additional N-terminal SM residues; GST (TEV site) (N); His6 (TEV site) (N, cleaved yes); made in house; host or cells: SMARCA2^BD: Escherichia coli BL21(DE3)
VCB: PROTAC: SMARCA2^BD ternary complex, sequence (P51531 with tags, fused parts or gaps isoform P51531-2): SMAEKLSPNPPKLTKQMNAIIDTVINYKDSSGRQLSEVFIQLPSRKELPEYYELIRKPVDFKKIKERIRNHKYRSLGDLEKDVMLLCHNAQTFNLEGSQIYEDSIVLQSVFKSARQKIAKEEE
VCB: PROTAC: SMARCA2^BD ternary complex, sequence (P40337 54-213): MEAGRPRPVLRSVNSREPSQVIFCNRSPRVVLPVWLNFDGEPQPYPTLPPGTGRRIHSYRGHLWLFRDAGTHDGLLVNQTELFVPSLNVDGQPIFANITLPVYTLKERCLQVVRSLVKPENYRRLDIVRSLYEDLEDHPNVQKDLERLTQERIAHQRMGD
VCB: PROTAC: SMARCA2^BD ternary complex, sequence (Q15369 17-112 partner): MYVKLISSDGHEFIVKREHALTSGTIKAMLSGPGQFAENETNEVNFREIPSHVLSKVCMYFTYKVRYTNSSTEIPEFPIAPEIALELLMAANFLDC
VCB: PROTAC: SMARCA2^BD ternary complex, sequence (Q15370 1-104 partner): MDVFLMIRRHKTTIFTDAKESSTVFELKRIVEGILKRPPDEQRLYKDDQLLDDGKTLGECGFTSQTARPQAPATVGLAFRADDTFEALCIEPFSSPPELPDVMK

SMARCA2 = SMARCA2 (Homo sapiens, UniProt P51531); experiment: Imaging-based SMARCA2 protein assay in RKO cells; assay type: cell-based; parameters: endogenous in cells; host or cells: RKO, NCI-H1568, A549, HCT116, LU99, HCC-364, HCT-15, HCC4006, SK-N-AS; settings: individual replicates
SMARCA2, sequence (P51531 whole entry): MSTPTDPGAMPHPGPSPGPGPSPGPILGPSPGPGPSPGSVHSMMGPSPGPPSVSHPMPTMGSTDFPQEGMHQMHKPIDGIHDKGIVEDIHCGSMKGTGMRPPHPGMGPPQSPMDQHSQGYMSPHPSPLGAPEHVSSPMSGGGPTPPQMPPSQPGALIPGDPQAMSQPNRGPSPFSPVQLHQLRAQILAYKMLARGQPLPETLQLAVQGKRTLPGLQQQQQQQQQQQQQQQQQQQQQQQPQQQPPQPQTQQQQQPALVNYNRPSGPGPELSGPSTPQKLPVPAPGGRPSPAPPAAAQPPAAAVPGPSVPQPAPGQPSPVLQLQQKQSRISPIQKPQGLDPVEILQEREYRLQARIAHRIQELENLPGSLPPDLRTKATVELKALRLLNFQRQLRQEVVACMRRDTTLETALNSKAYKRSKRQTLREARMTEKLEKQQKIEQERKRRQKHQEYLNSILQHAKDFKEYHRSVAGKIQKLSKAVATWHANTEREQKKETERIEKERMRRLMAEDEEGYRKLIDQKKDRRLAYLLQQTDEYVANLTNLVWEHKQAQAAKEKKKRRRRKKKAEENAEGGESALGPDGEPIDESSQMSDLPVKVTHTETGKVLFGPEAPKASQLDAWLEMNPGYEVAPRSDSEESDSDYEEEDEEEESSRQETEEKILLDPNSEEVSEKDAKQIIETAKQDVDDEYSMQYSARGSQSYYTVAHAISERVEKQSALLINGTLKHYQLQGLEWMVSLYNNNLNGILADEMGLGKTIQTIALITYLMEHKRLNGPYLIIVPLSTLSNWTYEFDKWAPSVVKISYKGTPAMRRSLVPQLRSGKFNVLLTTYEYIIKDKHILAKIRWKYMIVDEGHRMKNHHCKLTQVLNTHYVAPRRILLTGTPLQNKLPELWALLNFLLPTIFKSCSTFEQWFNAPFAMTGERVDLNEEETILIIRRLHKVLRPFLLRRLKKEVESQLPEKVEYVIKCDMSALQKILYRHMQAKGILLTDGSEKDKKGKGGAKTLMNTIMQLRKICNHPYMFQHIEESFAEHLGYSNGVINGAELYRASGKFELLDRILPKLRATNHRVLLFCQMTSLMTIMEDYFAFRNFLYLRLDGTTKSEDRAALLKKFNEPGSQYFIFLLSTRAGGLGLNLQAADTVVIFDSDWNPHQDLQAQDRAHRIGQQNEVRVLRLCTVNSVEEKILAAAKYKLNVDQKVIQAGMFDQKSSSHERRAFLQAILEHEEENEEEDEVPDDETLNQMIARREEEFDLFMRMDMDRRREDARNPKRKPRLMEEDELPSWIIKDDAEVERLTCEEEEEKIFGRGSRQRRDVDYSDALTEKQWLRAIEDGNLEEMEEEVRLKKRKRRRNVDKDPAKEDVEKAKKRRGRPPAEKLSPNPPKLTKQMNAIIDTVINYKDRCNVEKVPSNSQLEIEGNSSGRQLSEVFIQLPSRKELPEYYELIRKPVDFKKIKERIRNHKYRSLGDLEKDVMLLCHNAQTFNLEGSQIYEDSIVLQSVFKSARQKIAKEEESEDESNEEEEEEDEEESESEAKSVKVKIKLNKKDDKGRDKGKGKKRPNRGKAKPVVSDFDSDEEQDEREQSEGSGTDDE
Procedure: 1250 cells per well in 60 µl medium were plated in flat bottom, poly-lysin coated 384-well plates (CellCarrier Ultra, Perkin Elmer). The next day, test compounds (10 µl of serial dilutions) and DMSO controls were diluted in DMEM medium such that the final DMSO content was <1% or were added using an ultrasound dispensing system. 4 wells were reserved for a background measurement. […] After aspirating the fixing solution, the cells were washed once with 25 µl PBS. 25 µl of blocking buffer (10% goat serum in PBS) was added and cells were incubated for 30 min, then washed once with PBS. […] Cells were again washed once with PBS. […] The cell layer was then washed once with 25 µl PBS, the wells were filled with 25 µl PBS and the plates were sealed with an adhesive sheet. They were then imaged on the Opera Phoenix (mean intensity in the nucleus). […] EC50 values were computed using a 4-parametric logistic model.

[2] = PROTAC + VCB, individual replicates, read-out: Ternary SMARCA2 BD EC50 (PROTAC + VCB)
[3] = 4h, read-out: RKO (4h) SMARCA2 DC50
[4] = 18h, read-out: RKO (18h) SMARCA2 DC50
[5] = TR-FRET competition for SMARCA2BD, + VCB, mean ± SD, read-out: TR-FRET Ternary SMARCA2BD EC50 (PROTAC + VCB)

SMILES | Kd (SMARCA4^BD; SMARCA4BD, mean ± SD) | Kd (SMARCA4^BD; individual replicates) | EC50 [1, 2] | DC50 (SMARCA2; [3]) | DC50 (SMARCA2; [4]) | EC50 [1, 5]
CN1CCN(c2nc(=O)c3c(Cl)cccc3o2)CC1 [compound 13] | 35.6 ± 0.346 µM | 31.6 µM and 37.5 µM and 37.7 µM | > 10 µM | > 25 µM | > 25 µM | –
Cc1ncsc1-c1ccc(CNC(=O)[C@@H]2C[C@@H](O)CN2C(=O)[C@@H](NC(=O)C2(F)CC2)C(C)(C)C)c(OCCCCN2CCC(c3ccc4c(c3)n(C3CCCC3)c3nc(=O)c5c(Br)cccc5n43)CC2)c1 [compound 23] | 0.169 ± 0.076 µM | 0.117 µM and 0.133 µM and 0.256 µM | 0.115 µM and 0.127 µM and 0.132 µM and 0.372 µM | – | 0.03 µM and 0.05 µM and 0.04 µM | 0.164 ± 0.124 µM
Cc1ncsc1-c1ccc(CNC(=O)[C@@H]2C[C@@H](O)CN2C(=O)[C@@H](NC(=O)C2(F)CC2)C(C)(C)C)c(OCCOCCOCCN2CCC(c3ccc4c(c3)n(C3CCCC3)c3nc(=O)c5c(Br)cccc5n43)CC2)c1 [compound 21] | 0.863 ± 0.179 µM | 0.868 µM and 1.04 µM and 0.682 µM | 0.138 µM and 0.122 µM and 0.143 µM | > 25 µM | 0.0775 µM and 0.151 µM and 0.1 µM | 0.134 ± 0.011 µM
CN1CCC(c2ccc3c(c2)n(C2CCCC2)c2nc(=O)c4c(Br)cccc4n32)CC1 [compound 3] | 0.058 ± 0.01 µM | 0.11 µM and 0.0977 µM and 0.113 µM and 0.0694 µM and 0.051 µM and 0.0527 µM | 47 nM (2×) and 96.4 nM and 69.7 nM and 57.6 nM and 57.7 nM and 58.1 nM and 59.4 nM (2×) and 54.3 nM and 59.7 nM and 63.5 nM (2×) and 58 nM and 45.7 nM (2×) and 61 nM and 62.5 nM and 63 nM and 66 nM and 76.9 nM and 76.2 nM and 50.2 nM (2×) and 85.7 nM and 89.5 nM and 39.5 nM and 43.8 nM and 41.8 nM (2×) and 41.3 nM and 35.6 nM and 36.2 nM (2×) and 55 nM (2×) and 47.9 nM and 37.4 nM and 47.3 nM and 34.2 nM and 38 nM and 43.3 nM and 32.2 nM and 42.1 nM and 43.2 nM and 39.4 nM and 37.7 nM and 41.7 nM (2×) and 32.6 nM and 30.6 nM and 34.7 nM and 32.9 nM and 43.9 nM and 57.4 nM and 44.7 nM and 46.2 nM (5×) and 47.6 nM (2×) and 48.7 nM (3×) and 51.6 nM and 50.9 nM and 44.2 nM and 41.9 nM and 46.5 nM and 46.1 nM (2×) and 48.5 nM and 51.2 nM and 50.5 nM and 49.4 nM and 51.5 nM and 52.8 nM and 52.3 nM and 53.6 nM and 53.3 nM and 52.1 nM (2×) and 54.8 nM (2×) and 53.5 nM (2×) and 45.5 nM and 46.3 nM and 53.7 nM and 51.7 nM and 68.5 nM and 52.7 nM and 51.8 nM and 46.9 nM and 45.4 nM and 45.9 nM and 46.6 nM and 42.5 nM and 55.4 nM and 86.5 nM and 52.6 nM and 56.7 nM and 66.2 nM and 63.7 nM and 65.2 nM and 64.5 nM and 64.2 nM and 64.6 nM and 52.2 nM and 55.3 nM (2×) and 96.6 nM and 109 nM and 107 nM and 55.1 nM and 53 nM and 33.2 nM and 32.3 nM and 23.5 nM and 31.2 nM and 34 nM and 96.8 nM and 36 nM and 36.8 nM and 35.3 nM and 36.1 nM and 36.6 nM and 42.7 nM and 44.4 nM (2×) and 78.2 nM and 158 nM and 48.4 nM and 54 nM and 57.8 nM and 53.1 nM and 58.7 nM | > 25 µM | 20 µM and 24.9 µM and 22.4 µM | 0.048 ± 0.017 µM
Cc1ncsc1-c1ccc([C@H](CCC(C)(C)CCN2CCC(c3ccc4c(c3)n(C3CCCC3)c3nc(=O)c5c(Br)cccc5n43)CC2)NC(=O)[C@@H]2C[C@@H](O)CN2C(=O)[C@@H](NC(=O)C2(F)CC2)C(C)(C)C)cc1 [compound 30] | 0.579 ± 0.089 µM | 0.492 µM and 0.575 µM and 0.669 µM | 0.0456 µM and 0.0532 µM and 0.0681 µM and 0.0446 µM and 0.0469 µM | 0.00674 µM and 0.00927 µM | 0.00202 µM and 0.00396 µM and 0.00327 µM and 0.00357 µM | 0.051 ± 0.01 µM
Cc1ncsc1-c1ccc([C@H](CC[C@H](C)CCN2CCC(c3ccc4c(c3)n(C3CCCC3)c3nc(=O)c5c(Br)cccc5n43)CC2)NC(=O)[C@@H]2C[C@H](O)CN2C(=O)[C@@H](NC(=O)C2(F)CC2)C(C)(C)C)cc1 [compound 12] | 0.362 ± 0.052 µM | 0.306 µM and 0.408 µM and 0.37 µM | 0.148 µM and 0.161 µM and 0.256 µM and 0.158 µM | > 25 µM | 10.7 µM and 4.78 µM and 8.27 µM and > 25 µM | 0.181 ± 0.044 µM
